Experimental data from patent publication US8501755B2, “Tetrahydropyridothienopyrimidine compounds and methods of use thereof” (Bayer Intellectual Property GmbH, priority 2006, dated 2013).

Experiments:
Format in all cases: cell-based
[1] = tested on: A431 cells; test: In vitro tumor cell proliferation assay (Cell Titer-Glo) in A431 cells; conditions: Homo sapiens, A-431, 72 h, A431 human epidermoid carcinoma overexpressing HER1; 72 hours exposure; read-out: IC50, activities in A431 cell lines
Summary of the method: (§1)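 Viability after 72 h drug exposure at 37 °C was read as CellTiter-Glo ATP luminescence, giving IC50. Cells (2.5×10^3/well, RPMI + 10% FBS) were compound-treated one day post-seeding, 0.1% DMSO final: A431 overexpresses HER1, N87 overexpresses HER2 and HER1.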

[2] = tested on: N87; test: In vitro tumor cell proliferation assay (Cell Titer-Glo) in N87 cells; conditions: N87 human gastric carcinoma overexpressing HER2 and HER1; 72 hours exposure; read-out: IC50, activities in N87 cell lines
Summary of the method: as §1

[3] = tested on: H1975 cells; test: In vitro tumor cell proliferation assay (Cell Titer-Glo) in H1975 cells; conditions: NCI-H1975; H1975 human NSCLC expressing mutant HER1 (L858R,T790M); 72 hours exposure; read-out: IC50, activities in H 1975 cell lines
Summary of the method: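 After 72 h compound exposure at 37° C (top 10 uM down to 64 pM, 0.1% DMSO), viability of EGFR L858R/T790M-mutant H1975 cells was read as ATP luminescence.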

Compound	IC50 [1]	IC50 [2]	IC50 [3]
CCN(C)C/C=C/C(=O)N1CCc2c(sc3ncnc(Nc4ccc5c(ccn5Cc5ccccn5)c4)c23)C1 [Example 127, 7-{(2E)-4-[ethyl(methyl)amino]but-2-enoyl}-N-[l-(pyridin-ylmethyl)1H-indol-5-yl]-5,6,7,8-tetrahydropyrido [4′,3′:4,5]thieno[2,3-d]pyrimidin-4-amine]	200 to 1000 nM	< 200 nM	200 to 1000 nM
CN(C/C=C/C(=O)N1CCc2c(sc3ncnc(Nc4ccc5c(cnn5Cc5ccccn5)c4)c23)C1)C(C)(C)C [Example 128, 7-{(2E)-4-[tert-butyl(methyl)amino]but-2-enoyl}-N-[1-(pyridin-2-ylmethyl)-1H-indazol-5-yl]-5,6,7,8-tetrahydropyrido [4′,3′:4,5]thieno[2,3-d]pyrimidin-4-amine]	200 to 1000 nM	< 200 nM	200 to 1000 nM
CN(C/C=C/C(=O)N1CCc2c(sc3ncnc(Nc4ccc5c(ccn5Cc5ccccn5)c4)c23)C1)C(C)(C)C [Example 129]	200 to 1000 nM	< 200 nM	< 200 nM
O=C(C#CCCN1CCCCC1)N1CCc2c(sc3ncnc(Nc4ccc(OCc5ccccn5)c(Cl)c4)c23)C1 [Example 132, N-[3-chloro-4-(pyridin-2-ylmethoxy)phenyl]-7-(5-piperidin-1-ylpent-2-ynoyl)-5,6,7,8-tetrahydropyrido[4′,3′:4,5]-thieno[2,3-d]pyrimidin-4-amine]	200 to 1000 nM	< 200 nM	200 to 1000 nM
C#Cc1cccc(Nc2ncnc3sc4c(c23)CCN(C(=O)C#CCN(C)C)C4)c1 [Example 133, 7-[4-(dimethylamino)but-2-ynoyl]-N-(3-ethynylphenyl)-5,6,7,8-tetrahydropyrido [4′,3′:4,5]thieno[2,3-d]pyrimidin-4-amine]	200 to 1000 nM	< 200 nM	200 to 1000 nM
CN(C)CC#CC(=O)N1CCc2c(sc3ncnc(Nc4ccc(F)c(Cl)c4)c23)C1 [Example 134, N-(3-chloro-4-fluorophenyl)-7-[4-(dimethylamino)but-2-ynoyl]-5,6,7,8-tetrahydropyrido [4′,3′:4,5]thieno[2,3-d]pyrimidin-4-amine]	200 to 1000 nM	< 200 nM	200 to 1000 nM
CN(C)CC#CC(=O)N1CCc2c(sc3ncnc(Nc4ccc(OCc5ccccn5)c(Cl)c4)c23)C1 [Example 135, N-[3-chloro-4-(pyridin-2-ylmethoxy)phenyl]-7-[4-(dimethylamino)but-2-ynoyl]-5,6,7,8-tetrahydropyrido [4′,3′:4,5]thieno[2,3-d]pyrimidin-4-amine]	200 to 1000 nM	< 200 nM	< 200 nM
O=C(C#CCN1CCOCC1)N1CCc2c(sc3ncnc(Nc4ccc(OCc5ccccn5)c(Cl)c4)c23)C1 [Example 136, N-[3-chloro-4-(pyridin-2-ylmethoxy)phenyl]-7-(4-morpholin-4-ylbut-2-ynoyl)-5,6,7,8-tetrahydropyrido [4′,3′:4,5]thieno[2,3-d]pyrimidin-4-amine]	1000 to 10000 nM	< 200 nM	1000 to 10000 nM
O=C(C#CCN1CCOCC1)N1CCc2c(sc3ncnc(Nc4ccc(OCc5cccc(F)c5)c(Cl)c4)c23)C1 [Example 139, N-{3-chloro-4-[(3-fluorobenzyl)oxy]phenyl}-7-(4-morpholin-4-ylbut-2-ynoyl)-5,6,7,8-tetrahydropyrido [4′,3′:4,5]thieno[2,3-d]pyrimidin-4-amine]	200 to 1000 nM	< 200 nM	200 to 1000 nM
O=C(C#CCCN1CCCCC1)N1CCc2c(sc3ncnc(Nc4ccc(F)c(Cl)c4)c23)C1 [Example 140, N-(3-chloro-4-fluorophenyl)-7-(5-piperidin-1-ylpent-2-ynoyl)-5,6,7,8-tetrahydropyrido [4′,3′:4,5]thieno[2,3-d]pyrimidin-4-amine]	200 to 1000 nM	< 200 nM	200 to 1000 nM
C#Cc1cccc(Nc2ncnc3sc4c(c23)CCN(C(=O)C#CCCN2CCCCC2)C4)c1 [Example 141, N-(3-ethynylphenyl)-7-(5-piperidin-1-ylpent-2-ynoyl)-5,6,7,8-tetrahydropyrido [4′,3′:4,5]thieno[2,3-d]pyrimidin-4-amine]	200 to 1000 nM	< 200 nM	200 to 1000 nM
O=C(C#CCCN1CCCCC1)N1CCc2c(sc3ncnc(Nc4ccc(OCc5cccc(F)c5)c(Cl)c4)c23)C1 [Example 142, N-{3-chloro-4-[(3-fluorobenzyl)oxy]phenyl}-7-(5-piperidin-1-ylpent-2-ynoyl)-5,6,7,8-tetrahydropyrido [4′,3′:4,5]thieno[2,3-d]pyrimidin-4-amine]	200 to 1000 nM	< 200 nM	200 to 1000 nM
C=C(CN(CC)CC)C(=O)N1CCc2c(sc3ncnc(Nc4ccc(OCc5ccccn5)c(Cl)c4)c23)C1 [Example 143, N-[3-chloro-4-(pyridin-2-ylmethoxy)phenyl]-7-{2-[(diethylamino)methyl]acryloyl}-5,6,7,8-tetrahydropyrido[4′,3′:4,5]thieno[2,3-d]pyrimidin-4-amine]	200 to 1000 nM	< 200 nM	200 to 1000 nM
C=C(CN1CCOCC1)C(=O)N1CCc2c(sc3ncnc(Nc4ccc(OCc5ccccn5)c(Cl)c4)c23)C1 [Example 144]	1000 to 10000 nM	< 200 nM	1000 to 10000 nM
C=C(CN1CCOCC1)C(=O)N1CCc2c(sc3ncnc(Nc4ccc(F)c(Cl)c4)c23)C1 [Example 145, N-(3-chloro-4-fluorophenyl)-7-[2-(morpholin-4-ylmethyl)acryloyl]-5,6,7,8-tetrahydropyrido [4′,3′:4,5]thieno[2,3-d]pyrimidin-4-amine]	1000 to 10000 nM	200 to 5000 nM	1000 to 10000 nM
C=C(CN1CCOCC1)C(=O)N1CCc2c(sc3ncnc(Nc4ccc(OCc5cccc(F)c5)c(Cl)c4)c23)C1 [Example 146, N-{3-chloro-4-[(3-fluorobenzyl)oxy]phenyl}-7-[2-(morpholin-4-ylmethyl)acryloyl]-5,6,7,8-tetrahydropyrido [4′,3′:4,5]thieno[2,3-d]pyrimidin-4-amine]	1000 to 10000 nM	< 200 nM	1000 to 10000 nM
C=C(CN(CC)CC)C(=O)N1CCc2c(sc3ncnc(Nc4ccc(F)c(Cl)c4)c23)C1 [Example 147, N-(3-chloro-4-fluorophenyl)-7-{2-[(diethylamino)methyl]acryloyl}-5,6,7,8-tetrahydropyrido [4′,3′:4,5]thieno[2,3-d]pyrimidin-4-amine]	200 to 1000 nM	< 200 nM	1000 to 10000 nM
C#Cc1cccc(Nc2ncnc3sc4c(c23)CCN(C(=O)C(=C)CN(CC)CC)C4)c1 [Example 148, 7-{2-[(diethylamino)methyl]acryloyl}-N-(3-ethynylphenyl)-5,6,7,8-tetrahydropyrido [4′,3′:4,5]thieno[2,3-d]pyrimidin-4-amine]	1000 to 10000 nM	< 200 nM	1000 to 10000 nM
C=C(CN(CC)CC)C(=O)N1CCc2c(sc3ncnc(Nc4ccc(OCc5cccc(F)c5)c(Cl)c4)c23)C1 [Example 149, N-{3-chloro-4-[(3-fluorobenzyl)oxy]phenyl}-7-{2-[(diethylamino)methyl]acryloyl}-5,6,7,8-tetrahydropyrido [4′,3′:4,5]thieno[2,3-d]pyrimidin-4-amine]	200 to 1000 nM	< 200 nM	200 to 1000 nM
